Results from patent US5698522A, “6-position modified decapeptide LHRH antagonists” (Abbott Laboratories, priority 1995, dated 1997).
*1 amine or outer side, *2 acyl side, *3 side chain or, on linkers, in order; H or OH if unused. Where a SMILES comes first, the peptide text is derived from it. Side-chain parts run from the residue outwards. [ ]: non-standard residue; d: D form. The star is where a group is joined. Shikimoyl = O=C(C1=C[C@@H](O)[C@@H](O)[C@H](O)C1)*; dPhe(4-Cl) = N[C@H](Cc1ccc(Cl)cc1)C(=O)O; d2Nal = N[C@H](Cc1ccc2ccccc2c1)C(=O)O; Lys(iPr) = CC(C)NCCCC[C@H](N)C(=O)O; NMeY = CN[C@@H](Cc1ccc(O)cc1)C(=O)O; Ethylenediamine = C(CN[*:2])N[*:1]; hArg = N=C(N)NCCCC[C@H](N)C(=O)O; d3Pal = N[C@H](Cc1cccnc1)C(=O)O; Nicotinoyl = O=C(c1cccnc1)*; 2Furoyl = O=C(c1ccco1)*; CO = O=C([*:1])[*:2]

Biological target: T1, LHRH receptor (Rattus norvegicus, UniProt P30969)
T1 construct: endogenous in cells
T1 sequence (P30969 1-327): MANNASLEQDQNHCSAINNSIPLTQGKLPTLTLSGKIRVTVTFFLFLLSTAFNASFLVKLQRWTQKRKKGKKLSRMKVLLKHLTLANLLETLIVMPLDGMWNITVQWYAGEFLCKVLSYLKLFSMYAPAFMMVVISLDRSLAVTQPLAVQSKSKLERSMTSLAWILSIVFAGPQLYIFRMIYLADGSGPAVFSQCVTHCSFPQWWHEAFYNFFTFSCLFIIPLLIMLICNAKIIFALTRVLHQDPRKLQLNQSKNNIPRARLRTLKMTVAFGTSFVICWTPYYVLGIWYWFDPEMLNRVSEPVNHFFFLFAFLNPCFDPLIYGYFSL
Assay: in vitro LHRH antagonist potency (pA2) against the agonist leuprolide
Type: cell-based
Settings: negative logarithm of the antagonist concentration which shifts the response curve produced by the agonist leuprolide to two-fold higher concentration
Experimental: Representative compounds of the present invention were evaluated in in vitro tests for receptor binding (pKI) and for LHRH antagonist potency (pA2). The tests employed the methods detailed in F. Haviv, et al., J. Med. Chem., 32: 2340-2344 (1989). The receptor binding affinities (pKI) are the negative logarithms of the equilibtirum dissociation constants (pA2) are the negative logarithms of the concentration of antagonist which shift the response curve roduced by the agonist leuprolide to two-fold higher concentration. (Leuprolide is the LHRH agonist having the structure 5-oxo-Pro^1 -His^2 -Trp^3 -Ser^4 -Tyr^5 -D-Leu^6 -Leu^7 -Arg^8 -Pro^9 -NHEt and is disclosed and claimed in U.S. Pat. No. 4,005,063.) Typically pA2 values of 9.5 or greater are indicative of good LHRH antagonist potency.

CC(=O)N[C@H](Cc1ccc2ccccc2c1)C(=O)N[C@H](Cc1ccc(Cl)cc1)C(=O)N[C@H](Cc1cccnc1)C(=O)N[C@@H](CO)C(=O)N(C)[C@@H](Cc1ccc(O)cc1)C(=O)N[C@H](CCCCNC(=O)CNC(=O)c1ccco1)C(=O)N[C@@H](CC(C)C)C(=O)N[C@@H](CCCCNC(C)C)C(=O)N1CCC[C@H]1C(=O)N[C@H](C)C(N)=O [Example 6a, NAc-D2Nal^1 -D4ClPhe^2 -D3Pal^3 -Ser^4 -NMeTyr^5 -DLys(N-epsilon-Gly-2-Furoyl)^6 -Leu^7 -Lys(N-epsilon-Isopropyl)^8 -Pro^9 -DAla^10 NH2] (Ac-[d2Nal][dPhe(4-Cl)][d3Pal]S[NMeY][dK]([Gly-2Furoyl])L[Lys(iPr)]P[dA]-NH2)
Kb: 15.8 pM

CC(=O)N[C@H](Cc1ccc2ccccc2c1)C(=O)N[C@H](Cc1ccc(Cl)cc1)C(=O)N[C@H](Cc1cccnc1)C(=O)N[C@@H](CO)C(=O)N(C)[C@@H](Cc1ccc(O)cc1)C(=O)N[C@H](CCCCNC(=O)CNC(=O)C1=C[C@@H](O)[C@@H](O)[C@H](O)C1)C(=O)N[C@@H](CC(C)C)C(=O)N[C@@H](CCCCNC(C)C)C(=O)N1CCC[C@H]1C(=O)N[C@H](C)C(N)=O [Example 6b, NAc-D2Nal^1 -D4ClPhe^2 -D3Pal^3 -Ser^4 -NMeTyr^5 -DLys(N-epsilon-Gly-Shikimyl)^6 -Leu^7 -Lys(N-epsilon-Isopropyl)^8 -Pro^9 -DAla^10 NH2] (Ac-[d2Nal][dPhe(4-Cl)][d3Pal]S[NMeY][dK]([Gly-Shikimoyl])L[Lys(iPr)]P[dA]-NH2)
Kb: 24 pM

CC(=O)N[C@H](Cc1ccc2ccccc2c1)C(=O)N[C@H](Cc1ccc(Cl)cc1)C(=O)N[C@H](Cc1cccnc1)C(=O)N[C@@H](CO)C(=O)N(C)[C@@H](Cc1ccc(O)cc1)C(=O)N[C@H](CCCCNC(=O)[C@@H](CO)NC(=O)c1cccnc1)C(=O)N[C@@H](CC(C)C)C(=O)N[C@@H](CCCNC(=N)N)C(=O)N1CCC[C@H]1C(=O)N[C@H](C)C(N)=O [Example 7, NAc-D2Nal^1 -D4ClPhe^2 -D3Pal^3 -Ser^4 -NMeTyr^5 -DLys(N-epsilon-DSer-Nicotinyl)^6 -Leu^7 -Arg^8 -Pro^9 -DAla^10 NH2] (Ac-[d2Nal][dPhe(4-Cl)][d3Pal]S[NMeY][dK]([dS-Nicotinoyl])LRP[dA]-NH2)
Kb: 8.91 pM

CC(=O)N[C@H](CO)C(=O)NCCCC[C@@H](NC(=O)[C@H](Cc1ccc(O)cc1)N(C)C(=O)[C@H](CO)NC(=O)[C@@H](Cc1cccnc1)NC(=O)[C@@H](Cc1ccc(Cl)cc1)NC(=O)[C@@H](Cc1ccc2ccccc2c1)NC(C)=O)C(=O)N[C@@H](CC(C)C)C(=O)N[C@@H](CCCNC(=N)N)C(=O)N1CCC[C@H]1C(=O)N[C@H](C)C(N)=O [Example 8, NAc-D2Nal^1 -D4ClPhe^2 -D3Pal^3 -Ser^4 -NMeTyr^5 -DLys(N-epsilon-DSer-Acetyl)^6 -Leu^7 -Arg^8 -Pro^9 -DAla^10 NH2] (Ac-[d2Nal][dPhe(4-Cl)][d3Pal]S[NMeY][dK]([dS-Ac])LRP[dA]-NH2)
Kb: 7.94 pM

CC(=O)N[C@@H](CO)C(=O)NCCCC[C@@H](NC(=O)[C@H](Cc1ccc(O)cc1)N(C)C(=O)[C@H](CO)NC(=O)[C@@H](Cc1cccnc1)NC(=O)[C@@H](Cc1ccc(Cl)cc1)NC(=O)[C@@H](Cc1ccc2ccccc2c1)NC(C)=O)C(=O)N[C@@H](CC(C)C)C(=O)N[C@@H](CCCNC(=N)N)C(=O)N1CCC[C@H]1C(=O)N[C@H](C)C(N)=O [Example 9, NAc-D2Nal^1 -D4ClPhe^2 -D3Pal^3 -Ser^4 -NMeTyr^5 -DLys(N-epsilon-Ser-Acetyl)^6 -Leu^7 -Arg^8 -Pro^9 -DAla^10 NH2] (Ac-[d2Nal][dPhe(4-Cl)][d3Pal]S[NMeY][dK]([Ser-Ac])LRP[dA]-NH2)
Kb: 8.91 pM

CC(=O)N[C@H](Cc1ccc2ccccc2c1)C(=O)N[C@H](Cc1ccc(Cl)cc1)C(=O)N[C@H](Cc1cccnc1)C(=O)N[C@@H](CO)C(=O)N(C)[C@@H](Cc1ccc(O)cc1)C(=O)N[C@H](CCCCNC(=O)CNC(=O)c1cccnc1)C(=O)N[C@@H](CC(C)C)C(=O)N[C@@H](CCCNC(=N)N)C(=O)N1CCC[C@H]1C(=O)N[C@H](C)C(N)=O [Example 10, NAc-D2Nal^1 -D4ClPhe^2 -D3Pal^3 -Ser^4 -NMeTyr^5 -DLys(N-epsilon-Gly-Nicotinyl)^6 -Leu^7 -Arg^8 -Pro^9 -DAla^10 NH2] (Ac-[d2Nal][dPhe(4-Cl)][d3Pal]S[NMeY][dK]([Gly-Nicotinoyl])LRP[dA]-NH2)
Kb: 5.01 pM

CC(=O)N[C@H](Cc1ccc2ccccc2c1)C(=O)N[C@H](Cc1ccc(Cl)cc1)C(=O)N[C@H](Cc1cccnc1)C(=O)N[C@@H](CO)C(=O)N(C)[C@@H](Cc1ccc(O)cc1)C(=O)N[C@H](CCCCNC(=O)[C@@H](CO)NC(=O)C1=C[C@@H](O)[C@@H](O)[C@H](O)C1)C(=O)N[C@@H](CC(C)C)C(=O)N[C@@H](CCCNC(=N)N)C(=O)N1CCC[C@H]1C(=O)N[C@H](C)C(N)=O [Example 11, NAc-D2Nal^1 -D4ClPhe^2 -D3Pal^3 -Ser^4 -NMeTyr^5 -DLys(N-epsilon-DSer-Shikimyl)^6 -Leu^7 -Arg^8 -Pro^9 -DAla^10 NH2] (Ac-[d2Nal][dPhe(4-Cl)][d3Pal]S[NMeY][dK]([dS-Shikimoyl])LRP[dA]-NH2)
Kb: 17 pM

CC(=O)N[C@H](CO)C(=O)NCCCC[C@@H](NC(=O)[C@H](Cc1ccc(O)cc1)N(C)C(=O)[C@H](CO)NC(=O)[C@@H](Cc1cccnc1)NC(=O)[C@@H](Cc1ccc(Cl)cc1)NC(=O)[C@@H](Cc1ccc2ccccc2c1)NC(C)=O)C(=O)N[C@@H](CC(C)C)C(=O)N[C@@H](CCCCNC(=N)N)C(=O)N1CCC[C@H]1C(=O)N[C@H](C)C(N)=O [Example 13, NAc-D2Nal^1 -D4ClPhe^2 -D3Pal^3 -Ser^4 -NMeTyr^5 -DLys(N-epsilon-DSer-Acetyl)^6 -Leu^7 -Harg^8 -Pro^9 -DAla^10 NH2] (Ac-[d2Nal][dPhe(4-Cl)][d3Pal]S[NMeY][dK]([dS-Ac])L[hArg]P[dA]-NH2)
Kb: 7.94 pM

CC(=O)N[C@H](Cc1ccc2ccccc2c1)C(=O)N[C@H](Cc1ccc(Cl)cc1)C(=O)N[C@H](Cc1cccnc1)C(=O)N[C@@H](CO)C(=O)N(C)[C@@H](Cc1ccc(O)cc1)C(=O)N[C@H](CCCCNC(=O)NCCNC(=O)c1cccnc1)C(=O)N[C@@H](CC(C)C)C(=O)N[C@@H](CCCNC(=N)N)C(=O)N1CCC[C@H]1C(=O)N[C@H](C)C(N)=O [Example 14, NAc-D2Nal^1 -D4ClPhe^2 -D3Pal^3 -Ser^4 -NMeTyr^5 -DLys[N-epsilon-(N'-Carbonyl-Diaminoethane-N"-Nicotinyl)]^6 -Leu^7 -Arg^8 -Pro^9 -DAla^10 NH2] (Ac-[d2Nal][dPhe(4-Cl)][d3Pal]S[NMeY][dK]([CO-Ethylenediamine-Nicotinoyl])LRP[dA]-NH2)
Kb: 166 pM

CC(=O)N[C@H](Cc1ccc2ccccc2c1)C(=O)N[C@H](Cc1ccc(Cl)cc1)C(=O)N[C@H](Cc1cccnc1)C(=O)N[C@@H](CO)C(=O)N(C)[C@@H](Cc1ccc(O)cc1)C(=O)N[C@H](CCCCNC(=O)NCCNC(=O)C1=C[C@@H](O)[C@@H](O)[C@H](O)C1)C(=O)N[C@@H](CC(C)C)C(=O)N[C@@H](CCCNC(=N)N)C(=O)N1CCC[C@H]1C(=O)N[C@H](C)C(N)=O [Example 15, NAc-D2Nal^1 -D4ClPhe^2 -D3Pal^3 -Ser^4 -NMeTyr^5 -DLys[N-epsilon-(N'-Carbonyl-Diaminoethane-N"-Shikimyl)]^6 -Leu^7 -Arg^8 -Pro^9 -DAla^10 NH2] (Ac-[d2Nal][dPhe(4-Cl)][d3Pal]S[NMeY][dK]([CO-Ethylenediamine-Shikimoyl])LRP[dA]-NH2)
Kb: 2.82 pM

CC(=O)N[C@H](Cc1ccc2ccccc2c1)C(=O)N[C@H](Cc1ccc(Cl)cc1)C(=O)N[C@H](Cc1cccnc1)C(=O)N[C@@H](CO)C(=O)N(C)[C@@H](Cc1ccc(O)cc1)C(=O)N[C@H](CCCCNC(=O)CNC(=O)C1=C[C@@H](O)[C@@H](O)[C@H](O)C1)C(=O)N[C@@H](CC(C)C)C(=O)N[C@@H](CCCNC(=N)N)C(=O)N1CCC[C@H]1C(=O)N[C@H](C)C(N)=O [Example 17, NAc-D2Nal^1 -D4ClPhe^2 -D3Pal^3 -Ser^4 -NMeTyr^5 -DLys(N-epsilon-Gly-Shikimyl)^6 -Leu^7 -Arg^8 -Pro^9 -DAla^10 NH2] (Ac-[d2Nal][dPhe(4-Cl)][d3Pal]S[NMeY][dK]([Gly-Shikimoyl])LRP[dA]-NH2)
Kb: 7.24 pM

CC(=O)N[C@H](Cc1ccc2ccccc2c1)C(=O)N[C@H](Cc1ccc(Cl)cc1)C(=O)N[C@H](Cc1cccnc1)C(=O)N[C@@H](CO)C(=O)N(C)[C@@H](Cc1ccc(O)cc1)C(=O)N[C@H](CCCCNC(=O)CNC(=O)c1ccco1)C(=O)N[C@@H](CC(C)C)C(=O)N[C@@H](CCCNC(=N)N)C(=O)N1CCC[C@H]1C(=O)N[C@H](C)C(N)=O [Example 18, NAc-D2Nal^1 -D4ClPhe^2 -D3Pal^3 -Ser^4 -NMeTyr^5 -DLys(N-epsilon-Gly-2Furoyl)^6 -Leu^7 -Arg^8 -Pro^9 -DAla^10 NH2] (Ac-[d2Nal][dPhe(4-Cl)][d3Pal]S[NMeY][dK]([Gly-2Furoyl])LRP[dA]-NH2)
Kb: 3.09 pM
